Activity calls are given as the source filed them. The rule behind the calls is not given here.
Experiments:
HT-22 [1] = test: (§1) Cytotoxicity against mouse HT22 cells assessed as cell viability at 1 to 25 uM after 24 hrs by MTT assay relative to control; assay type: cell-based; conditions: ht-22, 24 h, 25 µM
[2] = Cytotoxicity against mouse HT22 cells assessed as cell viability at 10 uM after 24 hrs by MTT assay relative to control; assay type: cell-based, HT-22; conditions: read-out: Activity
[3] = Cytotoxicity against mouse HT22 cells assessed as cell viability at 25 uM after 24 hrs by MTT assay relative to control; assay type: cell-based, HT-22; conditions: read-out: Activity
HT-22 [4] = test: Neuroprotective activity against glutamate-induced neuronal cell death in mouse HT22 cells assessed as increase in cell viability at 1 to 25 uM after 24 hrs by MTT assay relative to control; assay type: functional, cell-based
[5] = as §1; assay type: cell-based, HT-22; conditions: HT22 cells, read-out: Activity
HT-22 [6] = test: Neuroprotective activity against glutamate-induced neuronal cell death in mouse HT22 cells assessed as increase in cell viability after 24 hrs by MTT assay relative to control; assay type: functional, cell-based
HT-22 [7] = test: Neuroprotective activity against glutamate-induced neuronal cell death in mouse HT22 cells assessed as increase in cell viability at 25 uM after 24 hrs by MTT assay relative to control; assay type: functional, cell-based
[8] = Cytotoxicity against mouse HT22 cells assessed as reduction in cell viability at 10 uM after 24 hrs by MTT assay relative to control; assay type: cell-based, HT-22; conditions: read-out: INH
[9] = Cytotoxicity against mouse HT22 cells assessed as reduction in cell viability at 25 uM after 24 hrs by MTT assay relative to control; assay type: cell-based, HT-22; conditions: read-out: INH
[10] = Cytotoxicity against mouse HT22 cells assessed as cell viability at 1 uM after 24 hrs by MTT assay relative to control; assay type: cell-based, HT-22; conditions: read-out: Activity
HT-22 [11] = test: Neuroprotective activity against glutamate-induced neuronal cell death in mouse HT22 cells assessed as increase in cell viability at 10 to 25 uM after 24 hrs by MTT assay relative to control; assay type: functional, cell-based
HT-22 [12] = test: Neuroprotective activity against glutamate-induced neuronal cell death in mouse HT22 cells assessed as increase in cell viability at 5 uM after 24 hrs by MTT assay relative to control; assay type: functional
HT-22 [13] = test: Neuroprotective activity against glutamate-induced neuronal cell death in mouse HT22 cells assessed as increase in cell viability at 10 uM after 24 hrs by MTT assay relative to control; assay type: functional
HT-22 [14] = test: Neuroprotective activity against t-BuOOH-induced neuronal cell death in mouse HT22 cells assessed as increase in cell viability at 1 to 100 uM after 20 hrs by MTT assay relative to control; assay type: functional, cell-based

SMILES	viability at 24 h, 10 µM [2] [%]	Activity (HT-22 [4])	Activity (HT-22 [6])	further results
O=C(/C=C/c1ccc(O)cc1)CC(=O)/C=C/c1ccc(O)cc1 [BISDEMETHOXYCURCUMIN]				Activity (HT-22 [1]): Toxic
Oc1ccc(CCCCC(O)CCc2ccc(O)cc2)cc1 (racemic)	43	inactive		viability at 24 h, 25 µM [3]: 25%
COc1cc(CCCCC(=O)/C=C/c2ccc(O)cc2)ccc1O	67	inactive		
O=C(/C=C/c1ccc(O)cc1)CCCCc1ccc(O)cc1	43	inactive		viability at 24 h, 25 µM [3]: 25%
COc1cc(CCC(=O)CCCCc2ccc(O)cc2)ccc1O			Dose-dependent effect	viability at 24 h, up to 25 µM [5]: 37%; Activity (HT-22 [7]): Active
COc1cc(/C=C/C(=O)CC(=O)/C=C/c2ccc(O)c(OC)c2)ccc1O [CURCUMIN]				cytotoxicity at 24 h, 10 µM [8]: 18%; cytotoxicity at 24 h, 25 µM [9]: 36%
O=C(/C=C/c1ccc(O)c(O)c1)CC(=O)/C=C/c1ccc(O)c(O)c1 [DIDEMETHYLCURCUMIN]				Activity (HT-22 [1]): Toxic
CC(=O)/C=C/c1ccc(O)cc1		inactive		viability at 24 h, up to 25 µM [5]: 50%
COc1cc(CCCCC(O)CCc2ccc(O)c(OC)c2)ccc1O (centres undefined)	73		Dose-dependent effect	Activity (HT-22 [7]): Active
COc1ccc(CCCCC(=O)CCc2ccc(OC)c(OC)c2)cc1OC				viability at 24 h, 25 µM [3]: 43%; viability at 24 h, 1 µM [10]: 75%; Activity (HT-22 [11]): inactive
COc1cc(/C=C/C(=O)CCCCc2ccc(O)c(OC)c2)ccc1O	66		Dose-dependent effect	Activity (HT-22 [12]): 47%; Activity (HT-22 [13]): 62%; Activity (HT-22 [14]): inactive
O=C(/C=C/c1ccc(O)c(O)c1)CCCCc1ccc(O)c(O)c1				viability at 24 h, 25 µM [3]: 78%; Activity (HT-22 [13]): inactive; Activity (HT-22 [7]): Active; Activity (HT-22 [14]): Active
O=C(CCCCc1ccc(O)cc1)CCc1ccc(O)cc1	43			viability at 24 h, 25 µM [3]: 25%
COc1cc(CCCCC(=O)CCc2ccc(O)cc2)ccc1O	71	inactive		
COc1cc(CCCCC(O)CCc2ccc(O)cc2)ccc1O (centres undefined)	74	inactive		
COc1cc(CCCCC(=O)CCc2ccc(O)c(OC)c2)ccc1O	70		Dose-dependent effect	Activity (HT-22 [7]): Active
COc1cc(/C=C/C(C)=O)ccc1O		inactive		
COc1cc(/C=C/C(O)=C/C(=O)/C=C/c2ccc(O)cc2)ccc1O [DEMETHOXYCURCUMIN]		inactive		Activity (HT-22 [1]): Toxic
COc1cc(CCC(O)CCCCc2ccc(O)cc2)ccc1O (centres undefined)	75		Dose-dependent effect	Activity (HT-22 [7]): Active
COc1cc(/C=C/C(=O)CCCCc2ccc(O)cc2)ccc1O	68		Dose-dependent effect	

— ChEMBL document CHEMBL3352561, “Synthesis of natural and non-natural curcuminoids and their neuroprotective activity against glutamate-induced oxidative stress in HT-22 cells” (J Nat Prod, 2014)
